pIC50: −log10 of the molar value.
Assays:
[1] = target: T1, Receptor tyrosine-protein kinase erbB-2 (Homo sapiens, UniProt P04626); experiment: Inhibitory activity tested against protein kinase HER-2
[2] = target: T2, Epidermal growth factor receptor (Homo sapiens, UniProt P00533); experiment: Inhibitory activity against epidermal growth factor receptor (EGFR)
[3] = target: T1, Receptor tyrosine-protein kinase erbB-2; experiment: Inhibition of HER-2 ErbB2 receptor
[4] = target: T2, Epidermal growth factor receptor; experiment: Inhibition of epidermal growth factor receptor (EGFR)

T2 sequence (P00533 whole entry): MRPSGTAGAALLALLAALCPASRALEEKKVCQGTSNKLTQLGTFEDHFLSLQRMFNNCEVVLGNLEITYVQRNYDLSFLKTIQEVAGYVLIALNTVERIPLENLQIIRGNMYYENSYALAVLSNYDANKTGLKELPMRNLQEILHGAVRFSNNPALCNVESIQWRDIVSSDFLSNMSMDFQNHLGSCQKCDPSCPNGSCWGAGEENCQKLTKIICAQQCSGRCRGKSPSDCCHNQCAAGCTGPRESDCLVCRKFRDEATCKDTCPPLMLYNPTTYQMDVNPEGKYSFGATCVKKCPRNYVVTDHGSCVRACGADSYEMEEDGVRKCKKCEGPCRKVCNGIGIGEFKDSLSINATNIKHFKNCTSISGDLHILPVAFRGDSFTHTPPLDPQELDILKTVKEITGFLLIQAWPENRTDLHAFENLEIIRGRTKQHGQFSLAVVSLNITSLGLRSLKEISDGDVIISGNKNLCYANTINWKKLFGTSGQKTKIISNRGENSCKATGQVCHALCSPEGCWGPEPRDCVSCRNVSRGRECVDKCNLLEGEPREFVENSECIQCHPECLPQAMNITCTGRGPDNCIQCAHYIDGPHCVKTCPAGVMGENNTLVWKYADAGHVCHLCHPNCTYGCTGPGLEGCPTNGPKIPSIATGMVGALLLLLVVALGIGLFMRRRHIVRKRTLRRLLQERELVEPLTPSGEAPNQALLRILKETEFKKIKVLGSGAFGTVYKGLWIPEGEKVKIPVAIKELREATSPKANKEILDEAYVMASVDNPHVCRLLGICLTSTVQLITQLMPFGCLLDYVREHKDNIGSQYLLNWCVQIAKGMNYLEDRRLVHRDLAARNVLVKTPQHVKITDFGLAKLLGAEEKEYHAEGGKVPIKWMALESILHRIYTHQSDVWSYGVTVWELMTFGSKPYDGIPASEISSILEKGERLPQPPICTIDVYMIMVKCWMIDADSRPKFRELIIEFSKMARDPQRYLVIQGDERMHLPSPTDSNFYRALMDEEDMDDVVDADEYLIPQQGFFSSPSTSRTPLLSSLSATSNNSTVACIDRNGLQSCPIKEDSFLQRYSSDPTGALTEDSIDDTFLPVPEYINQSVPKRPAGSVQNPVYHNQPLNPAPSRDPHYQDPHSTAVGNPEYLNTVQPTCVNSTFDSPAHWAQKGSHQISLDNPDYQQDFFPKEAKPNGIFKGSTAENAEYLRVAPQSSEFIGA
T1 sequence (P04626 whole entry): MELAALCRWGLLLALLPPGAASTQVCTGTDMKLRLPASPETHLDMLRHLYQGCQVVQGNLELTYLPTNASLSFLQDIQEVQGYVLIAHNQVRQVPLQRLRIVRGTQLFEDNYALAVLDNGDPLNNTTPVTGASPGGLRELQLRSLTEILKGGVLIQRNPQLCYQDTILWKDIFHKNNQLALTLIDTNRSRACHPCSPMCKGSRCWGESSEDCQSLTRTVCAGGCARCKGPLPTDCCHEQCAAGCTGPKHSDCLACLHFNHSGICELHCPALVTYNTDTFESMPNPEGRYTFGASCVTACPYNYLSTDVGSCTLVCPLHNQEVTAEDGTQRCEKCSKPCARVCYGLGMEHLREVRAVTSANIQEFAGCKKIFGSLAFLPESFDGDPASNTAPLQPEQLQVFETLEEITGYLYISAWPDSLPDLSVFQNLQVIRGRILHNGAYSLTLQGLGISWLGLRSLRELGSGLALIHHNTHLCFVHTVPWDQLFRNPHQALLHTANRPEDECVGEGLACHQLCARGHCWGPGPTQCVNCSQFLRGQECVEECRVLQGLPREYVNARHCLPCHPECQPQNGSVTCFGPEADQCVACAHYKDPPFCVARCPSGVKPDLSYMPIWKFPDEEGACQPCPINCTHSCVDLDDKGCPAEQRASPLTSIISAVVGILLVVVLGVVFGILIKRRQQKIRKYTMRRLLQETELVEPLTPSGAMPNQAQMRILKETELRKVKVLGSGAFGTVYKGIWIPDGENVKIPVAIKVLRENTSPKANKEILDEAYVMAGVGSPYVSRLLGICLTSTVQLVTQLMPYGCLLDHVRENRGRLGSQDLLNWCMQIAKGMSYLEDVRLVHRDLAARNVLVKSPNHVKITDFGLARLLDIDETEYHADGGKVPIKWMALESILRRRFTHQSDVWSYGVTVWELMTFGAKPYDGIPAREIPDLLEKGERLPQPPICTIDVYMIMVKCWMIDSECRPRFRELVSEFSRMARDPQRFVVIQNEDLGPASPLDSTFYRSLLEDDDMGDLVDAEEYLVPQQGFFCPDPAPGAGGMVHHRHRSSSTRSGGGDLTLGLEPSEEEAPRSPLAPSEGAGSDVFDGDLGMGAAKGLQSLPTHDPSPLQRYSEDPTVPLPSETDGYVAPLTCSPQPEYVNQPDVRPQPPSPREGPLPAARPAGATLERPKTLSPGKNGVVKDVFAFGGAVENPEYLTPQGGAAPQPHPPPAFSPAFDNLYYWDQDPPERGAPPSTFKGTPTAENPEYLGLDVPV

Row | Compound | pIC50 [1] | pIC50 [2] | other results
1 | COc1cc(/C=C(\C#N)C(N)=O)cc(SCCCC(=O)O)c1O | – | 4.32 | –
2 | COc1cc(/C=C(\C#N)C(N)=O)cc(SCCC(=O)O)c1O | – | – | pIC50 [3]: 4.04
3 | Cc1cc(C=C(C#N)C#N)cc(O)c1O | 4.23 | – | –
4 | COc1cc(C=C(C#N)C#N)cc(CSc2ccccc2C(=O)O)c1O | 5.00 | – | –
5 | N#C/C(=C\c1ccc(O)c(O)c1)C(=O)c1ccc(O)c(O)c1 | 4.77 | – | –
6 | COc1cc(C=C(C#N)C#N)cc(C)c1O | 3.95 | – | –
7 | N#C/C(=C\c1ccc(O)c(O)c1)C(=O)NCc1ccc(O)cc1 | 5.54 | 5.52 | –
8 | COc1cc(C=C(C#N)C#N)cc(CS(=O)(=O)c2ccc(C)cc2)c1O | 4.76 | – | –
9 | COc1cc(C=C(C#N)C#N)cc(SCC(=O)O)c1O | 5.34 | 4.27 | –
10 | N#C/C(=C\c1ccc(O)c(O)c1)C(=O)NCCCCc1ccccc1 | 3.30 | – | –
11 | Cc1cc(C)c(NC(=O)/C(C#N)=C/c2ccc(O)c(O)c2)c(C)c1 | 4.68 | 4.72 | –
12 | COc1cc(C=C(C#N)C#N)cc(CSc2ccccc2)c1O | 5.60 | – | –
13 | N#C/C(=C\c1ccc(O)c(O)c1)C(=O)c1ccc(F)cc1 | 4.89 | – | –
14 | N#C/C(=C\c1ccc(O)c(O)c1)C(=O)NCCc1ccccc1 | – | 6.21 | –
15 | COc1ccc(NC(=O)/C(C#N)=C/c2ccc(O)c(O)c2)c(OC)c1 | 3.78 | – | –
16 | CCOc1ccc2sc(SCc3cc(/C=C(\C#N)C(N)=O)cc(OC)c3O)nc2c1 | – | – | pIC50 [4]: 3.78
17 | CC(C)(C)Oc1cc(/C=C(\C#N)C(=N)S)cc(C(C)(C)C)c1O | 6.00 | 3.30 | –
18 | CCOC(=O)C(Cc1ccccc1)NC(=O)/C(C#N)=C/c1ccc(O)c(O)c1 (centres undefined) | 3.48 | – | –
19 | COc1cc(/C=C(\C#N)C(N)=O)cc(CSc2ccccn2)c1O | 6.15 | – | –
20 | Cc1cc(C)c(C(=O)/C(C#N)=C/c2ccc(O)c(O)c2)c(C)c1 | – | 4.72 | –

Further lines, with some results ahead:

Row | pIC50 [1] | pIC50 [2] | Compound | other results
21 | 5.00 | – | COc1cc(/C=C(\C#N)C(N)=O)cc(CSCc2ccccc2)c1O | –
22 | 5.82 | – | COc1cc(/C=C(\C#N)C(N)=O)cc(CSc2nc3ccccc3o2)c1O | –
23 | 5.48 | – | COc1cc(/C=C(\C#N)C(N)=O)cc(CSc2ccccc2NC(C)=O)c1O | –
24 | 5.99 | – | N#C/C(=C\c1cc(O)c(O)c(CSCc2ccccc2)c1)C(N)=O | –
25 | 5.78 | – | COc1cc(/C=C(\C#N)C(N)=O)cc(CSc2ccc(C)cc2)c1O | –
26 | 6.35 | – | COc1cc(/C=C(\C#N)C(N)=O)cc(CSc2ccccc2C(=O)O)c1O | –
27 | 5.21 | – | COc1cc(/C=C(\C#N)C(N)=O)cc(CSc2nc3ccccc3[nH]2)c1O | –
28 | 6.89 | – | COc1cc(/C=C(\C#N)C(N)=O)cc(CSc2ccccc2)c1O | –
29 | 5.34 | 5.77 | COc1cc(/C=C(\C#N)C(N)=O)cc(CSc2cccc3ccccc23)c1O | –
30 | 6.60 | – | COc1cc(/C=C(\C#N)C(N)=O)cc(CSCc2ccccc2Cl)c1O | –
31 | 4.82 | 4.08 | COc1cc(/C=C(\C#N)C(N)=O)cc(CSc2nc3cc(Cl)ccc3s2)c1O | –
32 | 5.70 | 4.80 | COc1cc(/C=C(/C#N)C(N)=O)cc(CSCc2ccc(Cl)cc2)c1O | –
